According to PubChem BioAssay AID1963421 (Molecular Pharmacology Branch, DTP, NCI, 2024):

System: 519858-162-T-J1-PDC complex spheroid growth, % test/control
Assay: Anticancer human tumor 519858-162-T-J1-PDC patient-derived colon adenocarcinoma cell line growth inhibition [Asc]
Details: for IC50: curve of first compound; for viability, T/C: stronger effect = lower value
Summary of the method: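 Tumor cells were grown as complex spheroids with human endothelial cells (HUVEC) and human mesenchymal stem cells as stroma. Agents were tested alone and in combination, in half-log steps down from the clinical Cmax, or from 10 microM where Cmax was unknown.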

[1] = second compound 0.00316 µM, first compound 0.00316 µM
[2] = second compound 0.00316 µM, first compound 0.01 µM
[3] = second compound 0.00316 µM, first compound 0.0316 µM
[4] = second compound 0.00316 µM, first compound 0.1 µM
[5] = second compound 0.00316 µM, first compound 0.316 µM
[6] = second compound 0.00316 µM, first compound 1 µM
[7] = second compound 0.01 µM, first compound 0.00316 µM
[8] = second compound 0.01 µM, first compound 0.01 µM
[9] = second compound 0.01 µM, first compound 0.0316 µM
[10] = second compound 0.01 µM, first compound 0.1 µM
[11] = second compound 0.01 µM, first compound 0.316 µM
[12] = second compound 0.01 µM, first compound 1 µM
[13] = second compound 0.0316 µM, first compound 0.00316 µM
[14] = second compound 0.0316 µM, first compound 0.01 µM
[15] = second compound 0.0316 µM, first compound 0.0316 µM
[16] = second compound 0.0316 µM, first compound 0.1 µM
[17] = second compound 0.0316 µM, first compound 0.316 µM
[18] = second compound 0.0316 µM, first compound 1 µM
[19] = second compound 0.1 µM, first compound 0.00316 µM
[20] = second compound 0.1 µM, first compound 0.01 µM
[21] = second compound 0.1 µM, first compound 0.0316 µM
[22] = second compound 0.1 µM, first compound 0.1 µM
[23] = second compound 0.1 µM, first compound 0.316 µM
[24] = second compound 0.1 µM, first compound 1 µM
[25] = second compound 0.316 µM, first compound 0.00316 µM
[26] = second compound 0.316 µM, first compound 0.01 µM
[27] = second compound 0.316 µM, first compound 0.0316 µM
[28] = second compound 0.316 µM, first compound 0.1 µM
[29] = second compound 0.316 µM, first compound 0.316 µM
[30] = second compound 0.316 µM, first compound 1 µM
[31] = second compound 1 µM, first compound 0.00316 µM
[32] = second compound 1 µM, first compound 0.01 µM
[33] = second compound 1 µM, first compound 0.0316 µM
[34] = second compound 1 µM, first compound 0.1 µM
[35] = second compound 1 µM, first compound 0.316 µM
[36] = second compound 1 µM, first compound 1 µM
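Note: seven day drug exposure begun three days after spheroid seeding.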
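Throughout, for viability, T/C: 100% = DMSO vehicle wells and lower values mean less viable spheroid.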

Q: What does the source list for `O=C(c1cc(Cc2n[nH]c(=O)c3ccccc23)ccc1F)N1CCN(C(=O)C2CC2)CC1` + CCN1C(C(=O)NC23CCC(C(=O)O)(CC2)CC3)C(c2cccc(Cl)c2F)C2(C(=O)Nc3cc(Cl)ccc32)C12CCCCC2?
A: IC50 (second compound 0.00949 µM): > 10000 nM; IC50 (second compound 0.03 µM): > 10000 nM; IC50 (second compound 0.0949 µM): > 10000 nM; IC50 (second compound 0.3 µM): > 10000 nM; IC50 (second compound 0.949 µM): > 10000 nM; IC50 (second compound 3 µM): > 10000 nM; viability, T/C (second compound 0.00949 µM, first compound 0.0316 µM): 106%; viability, T/C (second compound 0.00949 µM, first compound 0.1 µM): 81.9%; viability, T/C (second compound 0.00949 µM, first compound 0.316 µM): 101%; viability, T/C (second compound 0.00949 µM, first compound 1 µM): 81%; viability, T/C (second compound 0.00949 µM, first compound 3.16 µM): 90.8%; viability, T/C (second compound 0.00949 µM, first compound 10 µM): 79.4%; viability, T/C (second compound 0.03 µM, first compound 0.0316 µM): 130%; viability, T/C (second compound 0.03 µM, first compound 0.1 µM): 82.9%; viability, T/C (second compound 0.03 µM, first compound 0.316 µM): 127%; viability, T/C (second compound 0.03 µM, first compound 1 µM): 93.2%; viability, T/C (second compound 0.03 µM, first compound 3.16 µM): 75.2%; viability, T/C (second compound 0.03 µM, first compound 10 µM): 74.9%; viability, T/C (second compound 0.0949 µM, first compound 0.0316 µM): 117%; viability, T/C (second compound 0.0949 µM, first compound 0.1 µM): 103%; viability, T/C (second compound 0.0949 µM, first compound 0.316 µM): 101%; viability, T/C (second compound 0.0949 µM, first compound 1 µM): 77%; viability, T/C (second compound 0.0949 µM, first compound 3.16 µM): 92.7%; viability, T/C (second compound 0.0949 µM, first compound 10 µM): 100%; viability, T/C (second compound 0.3 µM, first compound 0.0316 µM): 163%; viability, T/C (second compound 0.3 µM, first compound 0.1 µM): 94.9%; viability, T/C (second compound 0.3 µM, first compound 0.316 µM): 99.2%; viability, T/C (second compound 0.3 µM, first compound 1 µM): 83.3%; viability, T/C (second compound 0.3 µM, first compound 3.16 µM): 85.2%; viability, T/C (second compound 0.3 µM, first compound 10 µM): 72.2%; viability, T/C (second compound 0.949 µM, first compound 0.0316 µM): 71.9%; viability, T/C (second compound 0.949 µM, first compound 0.1 µM): 70.6%; viability, T/C (second compound 0.949 µM, first compound 0.316 µM): 76.5%; viability, T/C (second compound 0.949 µM, first compound 1 µM): 86.5%; viability, T/C (second compound 0.949 µM, first compound 3.16 µM): 85.2%; viability, T/C (second compound 0.949 µM, first compound 10 µM): 94%; viability, T/C (second compound 3 µM, first compound 0.0316 µM): 63.8%; viability, T/C (second compound 3 µM, first compound 0.1 µM): 89.3%; viability, T/C (second compound 3 µM, first compound 0.316 µM): 94.7%; viability, T/C (second compound 3 µM, first compound 1 µM): 73.4%; viability, T/C (second compound 3 µM, first compound 3.16 µM): 100%; viability, T/C (second compound 3 µM, first compound 10 µM): 76%

Q: What does the source list for `CCN1CCN(Cc2ccc(Nc3ncc(F)c(-c4cc(F)c5nc(C)n(C(C)C)c5c4)n3)nc2)CC1` + CNC(C)C(=O)NC1CN(S(=O)(=O)c2cccc(S(=O)(=O)N3CCC4CCC(C(=O)NC(c5ccccc5)c5ccccc5)N4C(=O)C(NC(=O)C(C)NC)C3)c2)CCC2CCC(C(=O)NC(c3ccccc3)c3ccccc3)N2C1=O?
A: IC50 (second compound 0.00316 µM): > 1000 nM; IC50 (second compound 0.01 µM): > 1000 nM; IC50 (second compound 0.0316 µM): > 1000 nM; IC50 (second compound 0.1 µM): > 1000 nM; IC50 (second compound 0.316 µM): > 1000 nM; IC50 (second compound 1 µM): > 1000 nM; viability, T/C [1]: 98%; viability, T/C [2]: 99.6%; viability, T/C [3]: 127%; viability, T/C [4]: 115%; viability, T/C [5]: 84.4%; viability, T/C [6]: 70%; viability, T/C [7]: 108%; viability, T/C [8]: 107%; viability, T/C [9]: 95.1%; viability, T/C [10]: 64.7%; viability, T/C [11]: 79.1%; viability, T/C [12]: 93%; viability, T/C [13]: 116%; viability, T/C [14]: 112%; viability, T/C [15]: 94.8%; viability, T/C [16]: 96.6%; viability, T/C [17]: 86.4%; viability, T/C [18]: 77.2%; viability, T/C [19]: 128%; viability, T/C [20]: 120%; viability, T/C [21]: 106%; viability, T/C [22]: 89.3%; viability, T/C [23]: 84.2%; viability, T/C [24]: 76.3%; viability, T/C [25]: 77%; viability, T/C [26]: 91.7%; viability, T/C [27]: 120%; viability, T/C [28]: 67.6%; viability, T/C [29]: 47.6%; viability, T/C [30]: 71.7%; viability, T/C [31]: 115%; viability, T/C [32]: 117%; viability, T/C [33]: 107%; viability, T/C [34]: 80.1%; viability, T/C [35]: 77.9%; viability, T/C [36]: 83.4%

Q: With `COc1c(OCCCN2CCOCC2)ccc2c3n(c(=NC(=O)c4cnc(N)nc4)nc12)CCN3` + CNC(C)C(=O)NC1CN(S(=O)(=O)c2cccc(S(=O)(=O)N3CCC4CCC(C(=O)NC(c5ccccc5)c5ccccc5)N4C(=O)C(NC(=O)C(C)NC)C3)c2)CCC2CCC(C(=O)NC(c3ccccc3)c3ccccc3)N2C1=O as the compound, how does the IC50 (second compound 0.00316 µM) read?
A: 320 nM

Q: And the IC50 (second compound 0.01 µM)?
A: 162 nM

Q: What about the IC50 (second compound 0.0316 µM) of the same compound?
A: 156 nM

Q: What about the IC50 (second compound 0.1 µM) of the same compound?
A: 132 nM

Q: What about the IC50 (second compound 0.316 µM) of the same compound?
A: 237 nM

Q: And the IC50 (second compound 1 µM)?
A: 259 nM

Q: And the viability, T/C [1]?
A: 78.1%

Q: And the viability, T/C [2]?
A: 61%

Q: And the viability, T/C [3]?
A: 68.8%

Q: And the viability, T/C [4]?
A: 65.4%

Q: What about the viability, T/C [5] of the same compound?
A: 48.8%

Q: And the viability, T/C [6]?
A: 27.9%

Q: And the viability, T/C [7]?
A: 83.3%

Q: And the viability, T/C [8]?
A: 89.9%

Q: And the viability, T/C [9]?
A: 85.4%

Q: What about the viability, T/C [10] of the same compound?
A: 53.9%

Q: And the viability, T/C [11]?
A: 53.1%

Q: And the viability, T/C [12]?
A: 34.4%

Q: What about the viability, T/C [13] of the same compound?
A: 82.7%

Q: And the viability, T/C [14]?
A: 78.9%

Q: What about the viability, T/C [15] of the same compound?
A: 67%

Q: And the viability, T/C [16]?
A: 54.9%

Q: And the viability, T/C [17]?
A: 42.1%

Q: And the viability, T/C [18]?
A: 27.6%

Q: And the viability, T/C [19]?
A: 86.5%

Q: What about the viability, T/C [20] of the same compound?
A: 68.2%

Q: And the viability, T/C [21]?
A: 56.9%

Q: And the viability, T/C [22]?
A: 62.5%

Q: And the viability, T/C [23]?
A: 37.1%

Q: And the viability, T/C [24]?
A: 39.1%

Q: And the viability, T/C [25]?
A: 72.5%

Q: What about the viability, T/C [26] of the same compound?
A: 88.5%

Q: And the viability, T/C [27]?
A: 78.3%

Q: What about the viability, T/C [28] of the same compound?
A: 65.9%

Q: What about the viability, T/C [29] of the same compound?
A: 45.1%

Q: What about the viability, T/C [30] of the same compound?
A: 36.4%

Q: What about the viability, T/C [31] of the same compound?
A: 84.4%

Q: What about the viability, T/C [32] of the same compound?
A: 64.9%

Q: What about the viability, T/C [33] of the same compound?
A: 83.7%

Q: And the viability, T/C [34]?
A: 48.3%

Q: What about the viability, T/C [35] of the same compound?
A: 53.6%

Q: What about the viability, T/C [36] of the same compound?
A: 32%
